What was measured:
Btk = target: T1, Btk (Homo sapiens, UniProt Q06187); assay: Btk kinase assay (ADP-Glo); assay type: biochemical; conditions: ADP-Glo Btk kinase assay kit; ATP 1.2 μM; 60 minutes at room temperature
T1 construct: purchased Promega (Madison, Wis.)
Description: Btk kinase assay—The Btk kinase assay was performed using a ADP-Glo Btk kinase assay kit purchased from Promega (Madison, Wis.). The assay was conducted according to the protocols provided in the assay kit. In brief, the enzyme reaction was carried out in the kinase reaction buffer containing Btk (2 ng/μl), ATP (1.2 μM), poly GT peptide (0.3 μM), DTT (40 nM), MnCl2 (1.4 mM), and 1 xkinase buffer (included in the kit) in the presence or absence of the tested articles at various concentrations in 384-well plate at room temperature (22±1° C.) for 60 minutes. The final reaction volume for each reaction was 10 μl. Then, 4 μl of ADP-Glo reagent (included in the kit) was added into the reaction and the plate was further incubated for another 40 minutes to terminate the reaction and deplete the remaining ATP. Finally, 10 μl of the kinase detection reagent was added into each reaction to simultaneously convert ADP to ATP and allow the newly synthesized ATP to be measured by a plate-reading luminometer (Victor X5 2030 multilabel reader, PerkinElmer). IC50 value was calculated using appropriate programs in GraphPad Prism by plotting the logarithm of the concentration versus percent inhibition as compared with a vehicle (DMSO) control.

TMD-8 cells = assay: Cell proliferation assay (CellTiter-Glo), TMD-8 cells; assay type: cell-based; conditions: Homo sapiens, TMD8, 120 h, 5-day treatment, read-out: TMD8 cell growth (GI50 μM)
Description: Cell proliferation assay: TMD-8 and SU-DHL-1 cells were maintained at 37° C. in a humidified atmosphere with 5% CO2 in the recommended medium and serum concentrations. For cell proliferation assay, cells were seeded in 96-well pates at a density of 5,000 to 10,000 cells per well and cultured overnight at 37° C. in recommended medium supplemented with 5-10% FBS. On the next day, the test articles at various concentrations or vehicle control (0.5% DMSO) were added into cell culture. After 5-day treatment, the growth of cells was assayed by the CellTiter-Glo® Luminestceaent Cell Viability Assay (Promega). IC50 values were calculated using GraphPad Prism by plotting the logarithm of the concentration versus percent inhibition of cell growth as compared with the vehicle control.

T1 sequence (Q06187 whole entry): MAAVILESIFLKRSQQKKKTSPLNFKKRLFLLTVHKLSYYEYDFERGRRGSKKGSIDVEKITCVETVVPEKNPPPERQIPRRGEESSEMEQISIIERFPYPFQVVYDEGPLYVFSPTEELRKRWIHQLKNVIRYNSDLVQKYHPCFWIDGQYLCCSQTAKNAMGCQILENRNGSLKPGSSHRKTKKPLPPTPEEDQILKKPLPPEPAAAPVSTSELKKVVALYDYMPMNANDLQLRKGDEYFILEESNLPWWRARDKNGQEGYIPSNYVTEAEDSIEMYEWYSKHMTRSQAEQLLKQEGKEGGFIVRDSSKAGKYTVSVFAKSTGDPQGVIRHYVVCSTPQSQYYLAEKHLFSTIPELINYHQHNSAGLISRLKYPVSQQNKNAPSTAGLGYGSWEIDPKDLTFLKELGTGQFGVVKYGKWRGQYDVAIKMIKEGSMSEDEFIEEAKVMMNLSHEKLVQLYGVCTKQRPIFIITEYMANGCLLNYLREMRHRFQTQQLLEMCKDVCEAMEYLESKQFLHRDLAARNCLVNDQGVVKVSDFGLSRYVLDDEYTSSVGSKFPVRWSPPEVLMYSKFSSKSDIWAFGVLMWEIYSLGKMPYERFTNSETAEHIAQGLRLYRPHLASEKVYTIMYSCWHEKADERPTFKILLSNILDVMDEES

Row | Compound | IC50 (Btk) [nM] | GI50 (TMD-8 cells) [µM]
1 | COc1ccccc1OCC#Cc1nc2c(NC3CCN(C(=O)/C=C/CN(C)C)C3)ncnc2[nH]1 (stereo not shown) [Example 28, (E)-1-(3-((8-(3-(2-methoxyphenoxy)prop-1-yn-1-yl)-9H-purin-6-yl)amino)pyrrolidin-1-yl)-4-(dimethylamino)but-2-en-1-one] | 0.4 | 0.082
2 | COc1cccc(OCC#Cc2nc3c(NC4CCN(C(=O)/C=C/CN(C)C)C4)ncnc3[nH]2)c1 (stereo not shown) [Example 29, (E)-1-(3-((8-(3-(3-methoxyphenoxy)prop-1-yn-1-yl)-9H-purin-6-yl)amino)pyrrolidin-1-yl)-4-(dimethylamino)but-2-en-1-one] | 0.7 | 1.21
3 | COc1ccc(OCC#Cc2nc3c(NC4CCN(C(=O)/C=C/CN(C)C)C4)ncnc3[nH]2)cc1 (stereo not shown) [Example 30, (E)-1-(3-((8-(3-(4-methoxyphenoxy)prop-1-yn-1-yl)-9H-purin-6-yl)amino)pyrrolidin-1-yl)-4-(dimethylamino)but-2-en-1-one] | 19 | 1.2
4 | C=CC(=O)N1CC[C@@H](Nc2ncnc3[nH]c(C#CCOc4ccccc4)nc23)C1 [Example 31, (R)-1-(3-((8-(3-phenoxyprop-1-yn-1-yl)-9H-purin-6-yl)amino)pyrrolidin-1-yl)prop-2-en-1-one] | 1.6 | 0.02
5 | CN(C)C/C=C/C(=O)N1CC[C@@H](Nc2ncnc3[nH]c(C#CCOc4ccccc4)nc23)C1 [Example 32, (R,E)-4-(dimethylamino)-1-(3-((8-(3-phenoxyprop-1-yn-1-yl)-9H-purin-6-yl)amino)pyrrolidin-1-yl)but-2-en-1-one] | 7.5 | 0.004
6 | CN(C)C/C=C/C(=O)N1CCC(Nc2ncnc3[nH]c(C#CCOc4ccccc4)cc23)C1 (stereo not shown) [Example 34, (E)-4-(dimethylamino)-1-(3-((6-(3-phenoxyprop-1-yn-1-yl)-7H-pyrrolo[2,3-d]pyrimidin-4-yl)amino)pyrrolidin-1-yl)but-2-en-1-one] | 0.3 | 0.107
7 | CNC/C=C/C(=O)N1CCC(Nc2ncnc3[nH]c(C#CCOc4ccccc4)cc23)C1 (stereo not shown) [Example 35] | 0.4 | 0.95
8 | O=C(/C=C/CN1CCOCC1)N1CCC(Nc2ncnc3[nH]c(C#CCOc4ccccc4)cc23)C1 (stereo not shown) [Example 36, (E)-4-morpholino-1-(3-((6-(3-phenoxyprop-1-yn-1-yl)-7H-pyrrolo[2,3-d]pyrimidin-4-yl)amino)pyrrolidin-1-yl)but-2-en-1-one] | 127 | 0.552
9 | C=CC(=O)N1CCC(N(C)c2ncnc3[nH]c(C#CCOc4ccccc4)cc23)C1 (stereo not shown) [Example 38, 1-(3-(methyl(6-(3-phenoxyprop-1-yn-1-yl)-7H-pyrrolo[2,3-d]pyrimidin-4-yl)amino)pyrrolidin-1-yl)prop-2-en-1-one] | 384 | 0.209
10 | CN(C)C/C=C/C(=O)N1CCC(N(C)c2ncnc3[nH]c(C#CCOc4ccccc4)cc23)C1 (stereo not shown) [Example 39, (E)-4-(dimethylamino)-1-(3-(methyl(6-(3-phenoxyprop-1-yn-1-yl)-7H-pyrrolo[2,3-d]pyrimidin-4-yl)amino)pyrrolidin-1-yl)but-2-en-1-one] | 192 | 0.299
11 | C=CC(=O)N1CC[C@@H](Nc2ncnc3[nH]c(C#CCOc4ccccc4)cc23)C1 [Example 40, (R)-1-(3-((6-(3-phenoxyprop-1-yn-1-yl)-7H-pyrrolo[2,3-d]pyrimidin-4-yl)amino)pyrrolidin-1-yl)prop-2-en-1-one] | 0.3 | 0.004
12 | CN(C)C/C=C/C(=O)N1CC[C@@H](Nc2ncnc3[nH]c(C#CCOc4ccccc4)cc23)C1 [Example 41, (R,E)-4-(dimethylamino)-1-(3-((6-(3-phenoxyprop-1-yn-1-yl)-7H-pyrrolo[2,3-d]pyrimidin-4-yl)amino)pyrrolidin-1-yl)but-2-en-1-one] | 0.08 | 0.069
13 | C=CC(=O)N1CC[C@@H](Nc2ncnc3[nH]c(C#CCOc4ccccc4Cl)cc23)C1 [Example 43, (R)-1-(3-((6-(3-(2-chlorophenoxy)prop-1-yn-1-yl)-7H-pyrrolo[2,3-d]pyrimidin-4-yl)amino)pyrrolidin-1-yl)prop-2-en-1-one] | 0.14 | 0.001
14 | CN(C)C/C=C/C(=O)N1CC[C@@H](Nc2ncnc3[nH]c(C#CCOc4ccccc4Cl)cc23)C1 [Example 44, (R,E)-1-(3-((6-(3-(2-chlorophenoxy)prop-1-yn-1-yl)-7H-pyrrolo[2,3-d]pyrimidin-4-yl)amino)pyrrolidin-1-yl)-4-(dimethylamino)but-2-en-1-one] | 0.11 | 0.012
15 | C=CC(=O)N1CC[C@@H](Nc2ncnc3[nH]c(C#CCOc4ccccc4OC)cc23)C1 [Example 45, (R)-1-(3-((6-(3-(2-methoxyphenoxy)prop-1-yn-1-yl)-7H-pyrrolo[2,3-d]pyrimidin-4-yl)amino)pyrrolidin-1-yl)prop-2-en-1-one] | 1.1 | 0.0014
16 | COc1ccccc1OCC#Cc1cc2c(N[C@@H]3CCN(C(=O)/C=C/CN(C)C)C3)ncnc2[nH]1 [Example 46, (R,E)-1-(3-((6-(3-(2-methoxyphenoxy)prop-1-yn-1-yl)-7H-pyrrolo[2,3-d]pyrimidin-4-yl)amino)pyrrolidin-1-yl)-4-(dimethylamino)but-2-en-1-one] | 0.04 | 0.017
17 | CC#CC(=O)N1CC[C@@H](Nc2ncnc3[nH]c(C#CCOc4ccccc4F)cc23)C1 [Example 47, (R)-1-(3-((6-(3-(2-fluorophenoxy)prop-1-yn-1-yl)-7H-pyrrolo[2,3-d]pyrimidin-4-yl)amino)pyrrolidin-1-yl)but-2-yn-1-one] | 136 | 0.008
18 | C/C=C/C(=O)N1CC[C@@H](Nc2ncnc3[nH]c(C#CCOc4ccccc4F)cc23)C1 [Example 48, (R,E)-1-(3-((6-(3-(2-fluorophenoxy)prop-1-yn-1-yl)-7H-pyrrolo[2,3-d]pyrimidin-4-yl)amino)pyrrolidin-1-yl)but-2-en-1-one] | 432 | 0.088
19 | CN(C)C/C=C/C(=O)N1CC[C@@H](Nc2ncnc3[nH]c(C#CCOc4ccccc4F)cc23)C1 [Example 49, (R,E)-1-(3-((6-(3-(2-fluorophenoxy)prop-1-yn-1-yl)-7H-pyrrolo[2,3-d]pyrimidin-4-yl)amino)pyrrolidin-1-yl)-4-(dimethylamino)but-2-en-1-one] | < 0.03 | 0.017
20 | C=CC(=O)N1CC[C@@H](Nc2ncnc3[nH]c(C#Cc4ccccc4)cc23)C1 [Example 50, (R)-1-(3-((6-(phenylethynyl)-7H-pyrrolo[2,3-d]pyrimidin-4-yl)amino)pyrrolidin-1-yl)prop-2-en-1-one] | 11 | 0.009
21 | C=CC(=O)N1CC[C@@H](Nc2ncnc3[nH]c(C#Cc4ccccc4F)cc23)C1 [Example 51, (R)-1-(3-((6-((2-fluorophenyl)ethynyl)-7H-pyrrolo[2,3-d]pyrimidin-4-yl)amino)pyrrolidin-1-yl)prop-2-en-1-one] | 18 | 0.016
22 | CN(C)C/C=C/C(=O)N1CC[C@@H](Nc2ncnc3[nH]c(C#Cc4ccccc4F)cc23)C1 [Example 52, (R,E)-4-(dimethylamino)-1-(3-((6-((2-fluorophenyl)ethynyl)-7H-pyrrolo[2,3-d]pyrimidin-4-yl)amino)pyrrolidin-1-yl)but-2-en-1-one] | 6 | 0.187
23 | C=CC(=O)N1CC[C@@H](Nc2ncnc3[nH]c(C#Cc4ccc(OC)cc4)cc23)C1 [Example 53, (R)-1-(3-((6-((4-methoxyphenyl)ethynyl)-7H-pyrrolo[2,3-d]pyrimidin-4-yl)amino)pyrrolidin-1-yl)prop-2-en-1-one] | 23 | 0.006
24 | CN(C)C/C=C/C(=O)N1CC[C@@H](Nc2ncnc3[nH]c(C#Cc4ccccc4)cc23)C1 [Example 54, (R,E)-4-(dimethylamino)-1-(3-((6-(phenylethynyl)-7H-pyrrolo[2,3-d]pyrimidin-4-yl)amino)pyrrolidin-1-yl)but-2-en-1-one] | 3.5 | 0.121
25 | C=CC(=O)N1CC[C@@H](Nc2ncnc3[nH]c(C#Cc4ccccc4Cl)cc23)C1 [Example 55, (R)-1-(3-((6-((2-chlorophenyl)ethynyl)-7H-pyrrolo[2,3-d]pyrimidin-4-yl)amino)pyrrolidin-1-yl)prop-2-en-1-one] | 174 | 0.195
26 | CN(C)C/C=C/C(=O)N1CC[C@@H](Nc2ncnc3[nH]c(C#Cc4ccccc4Cl)cc23)C1 [Example 56, (R,E)-1-(3-((6-((2-chlorophenyl)ethynyl)-7H-pyrrolo[2,3-d]pyrimidin-4-yl)amino)pyrrolidin-1-yl)-4-(dimethylamino)but-2-en-1-one] | 323 | 1

Source: patent US10144737B2 (ETERNITY BIOSCIENCE INC., priority 2014, dated 2018)
